In the supplement of paper PMC10307832:

Tests used:
Assay in all cases: relative viability (nuclei count vs DMSO), 5 days (fraction); higher = more cells survive
RAF265 + Crizotinib = compound: Cn1c(Nc2ccc(C(F)(F)F)cc2)nc2cc(Oc3ccnc(-c4ncc(C(F)(F)F)[nH]4)c3)ccc21 [RAF265] + C[C@@H](Oc1cc(-c2cnn(C3CCNCC3)c2)cnc1N)c1c(Cl)ccc(F)c1Cl [Crizotinib] (partner 1 µM)
Method in brief: (§1)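 Each reported value is a median over duplicate plates. It expresses relative viability: treated-well nuclei count divided by vehicle-well nuclei count. Lung cancer cell lines in 1536-well plates were dosed by pin tool a day after seeding, alone with one drug or with a fixed anchor-drug dose plus five library-drug doses (not always all listed) in √10 steps, and nuclei were counted after 5 days.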

IPA-3 + Bortezomib = compound: C1=CC=C2C(=C1)C=CC(=C2SSC3=C(C=CC4=CC=CC=C43)O)O [IPA-3] + CC(C)C[C@H](NC(=O)[C@H](Cc1ccccc1)NC(=O)c1cnccn1)B(O)O [Bortezomib] (partner 0.002 µM)
Method in brief: as §1

RAF265 + Navitoclax = compound: Cn1c(Nc2ccc(C(F)(F)F)cc2)nc2cc(Oc3ccnc(-c4ncc(C(F)(F)F)[nH]4)c3)ccc21 [RAF265] + CC1(C)CCC(c2ccc(Cl)cc2)=C(CN2CCN(c3ccc(C(=O)NS(=O)(=O)c4ccc(N[C@H](CCN5CCOCC5)CSc5ccccc5)c(S(=O)(=O)C(F)(F)F)c4)cc3)CC2)C1 [Navitoclax] (partner 0.5 µM)
Method in brief: as §1

IPA-3 + Olaparib = compound: C1=CC=C2C(=C1)C=CC(=C2SSC3=C(C=CC4=CC=CC=C43)O)O [IPA-3] + O=C(c1cc(Cc2n[nH]c(=O)c3ccccc23)ccc1F)N1CCN(C(=O)C2CC2)CC1 [Olaparib] (partner 8 µM)
Method in brief: as §1

## UMC-11
RAF265 + Crizotinib; first compound 0.01 µM
  relative viability: 0.676
RAF265 + Crizotinib; first compound 0.03162 µM
  relative viability: 0.604
RAF265 + Crizotinib; first compound 0.1 µM
  relative viability: 0.602
RAF265 + Crizotinib; first compound 0.3162 µM
  relative viability: 0.648
RAF265 + Crizotinib; first compound 1 µM
  relative viability: 0.501
IPA-3 + Bortezomib; first compound 0.2 µM
  relative viability: 0.923
IPA-3 + Bortezomib; first compound 0.6325 µM
  relative viability: 0.767
IPA-3 + Bortezomib; first compound 2 µM
  relative viability: 0.845
IPA-3 + Bortezomib; first compound 6.325 µM
  relative viability: 0.726
IPA-3 + Bortezomib; first compound 20 µM
  relative viability: 0.986
RAF265 + Navitoclax; first compound 0.01 µM
  relative viability: 0.316
RAF265 + Navitoclax; first compound 0.03162 µM
  relative viability: 0.326
RAF265 + Navitoclax; first compound 0.1 µM
  relative viability: 0.299
RAF265 + Navitoclax; first compound 0.3162 µM
  relative viability: 0.322
RAF265 + Navitoclax; first compound 1 µM
  relative viability: 0.327
IPA-3 + Olaparib; first compound 0.2 µM
  relative viability: 1.06
IPA-3 + Olaparib; first compound 0.6325 µM
  relative viability: 0.459
IPA-3 + Olaparib; first compound 2 µM
  relative viability: 0.338
IPA-3 + Olaparib; first compound 6.325 µM
  relative viability: 0.361
IPA-3 + Olaparib; first compound 20 µM
  relative viability: 0.384
